Reference: ChEMBL document CHEMBL3217499, “Membrane disrupting antimicrobial peptide dendrimers with multiple amino termini” (Medchemcomm, 2012)
Values after ≈ are worked out from the molar mass of the structure shown. Active and inactive are the calls of the source. The rule behind the calls is not given here. Where a SMILES comes first, the peptide text is derived from it. Bridges are numbered along the chain shown (N, C = ends). Roman numbers before positions name the chains, in order. Side-chain parts run from the residue outwards. [ ]: non-standard residue; d: D form. The star is where a group is joined. X2 = CC[C@H](C)[C@H](N)C(=O)NCCCC[C@H](NC(=O)[C@@H](N)[C@@H](C)CC)C(=O)*; X1 = CC(C)C[C@H](N)C(=O)NC[C@H](NC(=O)[C@@H](N)CC(C)C)C(=O)*; Dap = NC[C@H](N)C(=O)O

Tests used:
Pseudomonas aeruginosa [1] = test: Antibacterial activity against Pseudomonas aeruginosa K799/61 by broth microdilution assay; assay type: functional
[2] = Hemolytic activity in human RBC after 4 hrs; assay type: ADME, cell-based; settings: erythrocyte
Enterococcus faecalis [3] = test: Antibacterial activity against Enterococcus faecalis Van BE80-8 by broth microdilution assay; assay type: functional
Pseudomonas aeruginosa [4] = test: Antibacterial activity against Pseudomonas aeruginosa ATCC 27853 by broth microdilution assay; assay type: functional
[5] = system: Staphylococcus epidermidis; test: Antibacterial activity against Staphylococcus epidermidis J147 by broth microdilution assay; assay type: functional
Escherichia coli [6] = test: Antibacterial activity against Escherichia coli HB101 (PAT 266) by broth microdilution assay; assay type: functional
Staphylococcus aureus [7] = test: Antibacterial activity against methicillin-resistant Staphylococcus aureus 42080 by broth microdilution assay; assay type: functional
Escherichia coli [8] = test: Antibacterial activity against Escherichia coli ATCC 25922 by broth microdilution assay; assay type: functional
Staphylococcus aureus [9] = test: Antibacterial activity against Staphylococcus aureus ATCC 25923 by broth microdilution assay; assay type: functional
Enterococcus faecalis [10] = test: Antibacterial activity against Enterococcus faecalis ATCC 29212 by broth microdilution assay; assay type: functional
Escherichia coli [11] = test: Antibacterial activity against Escherichia coli DC2 by broth microdilution assay; assay type: functional
Staphylococcus aureus [12] = test: Antibacterial activity against Staphylococcus aureus ATCC 29213 by broth microdilution assay; assay type: functional
Escherichia coli [13] = test: Antibacterial activity against Escherichia coli DH5[alpha] after 18 to 24 hrs by broth microdilution assay; assay type: functional
Pseudomonas aeruginosa [14] = test: Antibacterial activity against Pseudomonas aeruginosa PAO1 HS by broth microdilution assay; assay type: functional
Staphylococcus aureus [15] = test: Antibacterial activity against Staphylococcus aureus 887 by broth microdilution assay; assay type: functional
Enterococcus faecium [16] = test: Antibacterial activity against Enterococcus faecium Van BE38-10 by broth microdilution assay; assay type: functional
Pseudomonas aeruginosa [17] = test: Antibacterial activity against Pseudomonas aeruginosa 8S/H by broth microdilution assay; assay type: functional
Enterococcus faecium [18] = test: Antibacterial activity against Enterococcus faecium ATCC 19434 by broth microdilution assay; assay type: functional
Bacillus subtilis = test: Antibacterial activity against Bacillus subtilis BR151 after 18 to 24 hrs by broth microdilution assay; assay type: functional
[19] = system: Staphylococcus epidermidis; test: Antibacterial activity against Staphylococcus epidermidis ATCC 14990 by broth microdilution assay; assay type: functional
Pseudomonas aeruginosa [20] = test: Antibacterial activity against Pseudomonas aeruginosa K799/WT by broth microdilution assay; assay type: functional
Lipid bilayer = test: Induction of membrane disruption in synthetic unilamellar vesicles assembled from Escherichia coli lipids at 25 ug/ml after 16 hrs by negative-stain transmission electron microscopic analysis; assay type: functional
Pseudomonas aeruginosa [21] = test: Antibacterial activity against Pseudomonas aeruginosa PAO1 after 18 to 24 hrs by broth microdilution assay; assay type: functional

Row | SMILES | MIC (Pseudomonas aeruginosa [1]) [µg/mL] | MHC [2] [µg/mL] | MIC (Enterococcus faecalis [3]) [µg/mL] | MIC (Pseudomonas aeruginosa [4]) [µg/mL] | MIC [5] [µg/mL] | MIC (Escherichia coli [6]) [µg/mL] | MIC (Staphylococcus aureus [7]) [µg/mL] | MIC (Escherichia coli [8]) [µg/mL] | MIC (Staphylococcus aureus [9]) [µg/mL] | MIC (Enterococcus faecalis [10]) [µg/mL] | MIC (Escherichia coli [11]) [µg/mL] | MIC (Staphylococcus aureus [12]) [µg/mL] | MIC (Escherichia coli [13]) [µg/mL] | MIC (Pseudomonas aeruginosa [14]) [µg/mL] | MIC (Staphylococcus aureus [15]) [µg/mL] | MIC (Enterococcus faecium [16]) [µg/mL] | MIC (Pseudomonas aeruginosa [17]) [µg/mL] | MIC (Bacillus subtilis) [µg/mL] | MIC (Pseudomonas aeruginosa [20]) [µg/mL] | MIC (Pseudomonas aeruginosa [21]) [µg/mL] | also measured
1 | CC(C)C[C@H](NC(=O)[C@H](CCCCNC(=O)[C@@H](N)CC(C)C)NC(=O)[C@@H](N)CC(C)C)C(=O)NCCCC[C@H](NC(=O)[C@H](CC(C)C)NC(=O)[C@H](CCCCNC(=O)[C@@H](N)CC(C)C)NC(=O)[C@@H](N)CC(C)C)C(=O)N[C@@H](Cc1ccccc1)C(=O)NCCCC[C@H](NC(=O)[C@H](Cc1ccccc1)NC(=O)[C@H](CCCCNC(=O)[C@H](CC(C)C)NC(=O)[C@H](CCCCNC(=O)[C@@H](N)CC(C)C)NC(=O)[C@@H](N)CC(C)C)NC(=O)[C@H](CC(C)C)NC(=O)[C@H](CCCCNC(=O)[C@@H](N)CC(C)C)NC(=O)[C@@H](N)CC(C)C)C(=O)N[C@@H](CCCCN)C(N)=O | > 32 | 310 | > 32 | > 32 | 24 (≈ 8.91 µM) | 32 (≈ 11.9 µM) | > 32 | > 32 | 24 (≈ 8.91 µM) | > 32 | > 32 | > 32 | 21 (≈ 7.79 µM) | > 32 | 12 (≈ 4.45 µM) | 32 (≈ 11.9 µM) | > 32 | 2 (≈ 0.742 µM) | > 32 | > 72 | MIC (Enterococcus faecium [18]): ≥ 32 µg/mL; MIC [19]: 32 µg/mL (≈ 11.9 µM); Activity (Lipid bilayer): Active
2 | CC(C)C[C@H](NC(=O)[C@H](CNC(=O)[C@@H](N)CC(C)C)NC(=O)[C@@H](N)CC(C)C)C(=O)NC[C@H](NC(=O)[C@H](CC(C)C)NC(=O)[C@H](CNC(=O)[C@@H](N)CC(C)C)NC(=O)[C@@H](N)CC(C)C)C(=O)N[C@@H](Cc1ccccc1)C(=O)NC[C@H](NC(=O)[C@H](Cc1ccccc1)NC(=O)[C@H](CNC(=O)[C@H](CC(C)C)NC(=O)[C@H](CNC(=O)[C@@H](N)CC(C)C)NC(=O)[C@@H](N)CC(C)C)NC(=O)[C@H](CC(C)C)NC(=O)[C@H](CNC(=O)[C@@H](N)CC(C)C)NC(=O)[C@@H](N)CC(C)C)C(=O)N[C@@H](CCCCN)C(N)=O (I: H-L[Dap](Leu)L[Dap]([Leu-X1])F[Dap]K-NH2 / II: H-L[Dap](Leu)L[Dap]([Leu-X1])F; amide I:6-II:C) | > 32 | > 2000 | > 32 | > 32 | 24 (≈ 10 µM) | 32 (≈ 13.3 µM) | > 32 | > 32 | ≥ 32 | > 32 | 32 (≈ 13.3 µM) | > 32 | 3.9 (≈ 1.62 µM) | > 32 | 32 (≈ 13.3 µM) | > 32 | > 32 | 2.9 (≈ 1.21 µM) | > 32 | 18 (≈ 7.5 µM) | MIC (Enterococcus faecium [18]): > 32 µg/mL; MIC [19]: 24 µg/mL (≈ 10 µM)
3 | CC(C)C[C@H](N)C(=O)NCCCC[C@H](NC(=O)[C@@H](N)CC(C)C)C(=O)N[C@@H](Cc1ccccc1)C(=O)NCCCC[C@H](NC(=O)[C@H](Cc1ccccc1)NC(=O)[C@H](CCCCNC(=O)[C@@H](N)CC(C)C)NC(=O)[C@@H](N)CC(C)C)C(=O)N1CCC[C@H]1C(=O)NCCCC[C@H](NC(=O)[C@@H]1CCCN1C(=O)[C@H](CCCCNC(=O)[C@H](Cc1ccccc1)NC(=O)[C@H](CCCCNC(=O)[C@@H](N)CC(C)C)NC(=O)[C@@H](N)CC(C)C)NC(=O)[C@H](Cc1ccccc1)NC(=O)[C@H](CCCCNC(=O)[C@@H](N)CC(C)C)NC(=O)[C@@H](N)CC(C)C)C(=O)N[C@@H](CCCCN)C(N)=O | > 32 | > 10000 | > 32 | > 32 |  |  | > 32 | > 32 |  | > 32 |  | > 32 | 19 (≈ 6.96 µM) | > 32 |  |  | > 32 | 2 (≈ 0.732 µM) | > 32 | 66 (≈ 24.2 µM) | 
4 | CC1(C)S[C@@H]2[C@H](NC(=O)[C@H](N)c3ccccc3)C(=O)N2[C@H]1C(=O)O [AMPICILLIN] |  |  |  |  | 1.5 (≈ 4.29 µM) | > 32 |  |  | 0.13 (≈ 0.372 µM) |  | 1 (≈ 2.86 µM) |  |  |  | > 32 | > 32 |  |  |  |  | MIC (Enterococcus faecium [18]): 4 µg/mL (≈ 11.4 µM); MIC [19]: 1 µg/mL (≈ 2.86 µM)
5 | CC(C)C[C@H](N)C(=O)NC[C@H](NC(=O)[C@@H](N)CC(C)C)C(=O)N[C@@H](Cc1ccccc1)C(=O)NC[C@H](NC(=O)[C@H](Cc1ccccc1)NC(=O)[C@H](CNC(=O)[C@@H](N)CC(C)C)NC(=O)[C@@H](N)CC(C)C)C(=O)N1CCC[C@H]1C(=O)NC[C@H](NC(=O)[C@@H]1CCCN1C(=O)[C@H](CNC(=O)[C@H](Cc1ccccc1)NC(=O)[C@H](CNC(=O)[C@@H](N)CC(C)C)NC(=O)[C@@H](N)CC(C)C)NC(=O)[C@H](Cc1ccccc1)NC(=O)[C@H](CNC(=O)[C@@H](N)CC(C)C)NC(=O)[C@@H](N)CC(C)C)C(=O)N[C@@H](CCCCN)C(N)=O (I: H-L[Dap](Leu)F[Dap]([Phe-X1])P[Dap]K-NH2 / II: H-L[Dap](Leu)F[Dap]([Phe-X1])P; amide I:6-II:C) | > 32 | > 2000 | > 32 | > 32 |  |  | > 32 | > 32 |  | > 32 |  | > 32 | 15 (≈ 6.16 µM) | > 32 |  |  | > 32 | 3.1 (≈ 1.27 µM) | > 32 | 20 (≈ 8.21 µM) | 
6 | CC[C@H](C)[C@H](N)C(=O)NCCCC[C@H](NC(=O)[C@@H](N)[C@@H](C)CC)C(=O)N[C@H](C(=O)NCCCC[C@H](NC(=O)[C@@H](NC(=O)[C@H](CCCCNC(=O)[C@@H](N)[C@@H](C)CC)NC(=O)[C@@H](N)[C@@H](C)CC)[C@@H](C)CC)C(=O)N[C@@H](Cc1ccccc1)C(=O)NCCCC[C@H](NC(=O)[C@H](Cc1ccccc1)NC(=O)[C@H](CCCCNC(=O)[C@@H](NC(=O)[C@H](CCCCNC(=O)[C@@H](N)[C@@H](C)CC)NC(=O)[C@@H](N)[C@@H](C)CC)[C@@H](C)CC)NC(=O)[C@@H](NC(=O)[C@H](CCCCNC(=O)[C@@H](N)[C@@H](C)CC)NC(=O)[C@@H](N)[C@@H](C)CC)[C@@H](C)CC)C(=O)N[C@@H](CCCCN)C(N)=O)[C@@H](C)CC (I: H-IK(Ile)IK([Ile-X2])FKK-NH2 / II: H-IK(Ile)IK([Ile-X2])F; amide I:6-II:C) | > 32 | 20 | > 32 | > 32 | > 32 | > 32 | > 32 | > 32 | > 32 | > 32 | > 32 | > 32 | 79 (≈ 29.3 µM) | > 32 | 16 (≈ 5.94 µM) | 8 (≈ 2.97 µM) | > 32 | 4.4 (≈ 1.63 µM) | > 32 | > 100 | MIC (Enterococcus faecium [18]): 24 µg/mL (≈ 8.91 µM); MIC [19]: 32 µg/mL (≈ 11.9 µM)
